In the NIST ThermoML archive (doi:10.1016/j.jct.2012.12.015):
Numbers after ± are expanded uncertainties.

Columns and labels:
[1] = Crystal; visual observation
[2] = xn = mol fraction of the nth substance listed; conditions: 101 kPa, Liquid, Pulse-echo method, x2 = 0.5

Normal melting temperature [1] [°C]	speed of sound ([2]; 1065 K) [m/s]	speed of sound ([2]; 1071 K) [m/s]	speed of sound ([2]; 1075 K) [m/s]	Compound
559 ± 1	–	–	–	[Ag][I] [silver iodide]
–	1360 ± 8	1357 ± 8	1354 ± 8	[Ag][I] [silver iodide] + [Cl-].[Na+]
801 ± 1	–	–	–	[Cl-].[Na+] [sodium chloride]
